Experimental data as given in patent publication US10827753B2, “Compositions and methods for controlling nematodes” (Monsanto Technology LLC, priority 2007, dated 2020).

Experiments:
Meloidogyne incognita [1] = experiment: Summer field evaluation of pre-plant incorporated compounds on squash; format: in vivo
Description: Test plots of 33 cm diameter holes were bored 41 cm deep into clay soil and filled with a mixture of 80% sand and 20% silt loam soil. Technical compound for each treatment was dissolved in 50 ml acetone containing 250 ul of Triton X-100 surfactant. This solution was added to 450 ml water and poured onto 95 liters of sand/soil mixture in a rotating drum mixer. While continuing to rotate the mixing drum 66 grams of chopped, galled, tomato roots was added and thoroughly distributed. The treated soil was sufficient to fill the top 15 cm of each of the 6 replicate plots, thus simulating a PPI treatment. The plots were then watered lightly and a mixture of M. incognita eggs and larvae were injected 5 cm deep at 5 points within the plot (100 k eggs/larvae in 10 ml per plot). Three-week old squash (cv. Liberator III) with 1 fully expanded true leaf was planted 4 days after soil treatment, one per plot.

Meloidogyne incognita [2] = experiment: M. incognita miniaturized greenhouse assay on cucumber seedlings (root galling); format: in vivo; design: key to 1 ppm gall ratings / 1 ppm gall rating: mean of 3 gall ratings: 0=0-5%, 1=6-20%, 2=21-50%, 3=51-100% root galled
Description: The test compound is dissolved in an acetone solution and added to water. A sprouted cucumber seedling is placed into a vial with dry sand and the water-chemical solution is added immediately. Twenty four hours later Meloidogyne incognita eggs are added to the vials and 10 to 12 days later the roots are evaluated for nematode galling.
Cucumber seeds are sprouted for 3 days in moist paper towels. Acceptable sprouts should be 3 to 4 cm long with several lateral roots just emerging. Stock solutions of chemistry are prepared in a mixture of acetone and Triton X100 (412 mg in 500 mL) to a final concentration of 5 mg/mL. The chemical stock solution is then added to 10 mL deionized water plus 0.015% Triton X100 and mixed thoroughly. This is enough to test each condition in triplicate. Ten mL dry sand is added to each vial. At this time the solubility of the chemistry is visually determined and recorded as either ppt (large precipitates) or cloudy (fine precipitates). Seedlings are planted by tilting the vial and laying the seedling in the correct orientation so that the cotyledons are just above the sand and then tilting back to cover the radicles with sand. 3.3 ml water/chemical mix is added to each vial and the vials placed in racks under fluorescent light banks. The vials are inoculated two days after planting by adding 500 vermiform M. incognita eggs to each vial in 50 uL of deionized or spring water. The vials are then kept under the fluorescent lamps at ambient room temperature and watered as needed with 1 mL deionized water, usually twice during duration of test. Harvest of the cucumber plants is done 10 to 12 days after inoculation by washing sand off the roots. A root gall rating and visual phytotoxicity rating is assigned using the following scales: Gall rating scale (Gall: % root mass galled): 0=0-5%; 1=6-20%; 2=21-50%; and 3=51-100%. The average of the triplicate gall rating is then calculated: green=0.00-0.33 (no galls); yellow=0.67-1.33 (mild galling); orange=1.67-2.33 (moderate galling); red=2.67-3.00 (severe galling). Visual phytotoxicity scale is also assigned (Vis. tox; visual reduction in root mass compared to the control): rs1=mild stunting; rs2=moderate stunting; rs3=severe stunting.

root knot nematode = experiment: Pre-plant incorporated (PPI) greenhouse test of root knot nematode on cucumber plants; format: in vivo, Meloidogyne incognita; conditions: Meloidogyne incognita, fourteen day pre-plant incorporated, test a, read-out: percent control (galling reduction) relative to the control blank treatment
From the text: The PPI test examines the effect of pre-incorporation of compounds in soil and longer aging to simulate in furrow methods of nematicide application in the field. The PPI test exposes compounds to a higher volume of soil and drying which can result in more severe soil binding. Compounds are also aged for longer periods which can lead to more extensive biotic and abiotic degradation further limiting activity.
The chemically treated soil (sandy soil mix) for all treatment days (e.g., 7 days, 14 days, 21 days) treatments is potted into their appropriate pots. On the same day the 7 day treatment pots are seeded. One week later eggs are applied and 14 days after egg application the test is harvested. The 14 day treatments are planted 7 days after the first planting. The 14 day planting and 7 day inoculation happen on the same day. One week later the 14 day treatments are inoculated with eggs. These are harvested 14 days after the inoculation. The 21 day treatments are planted 14 days after the first planting. The 14 day inoculation and 21 day planting are done on the same day. One week later the 21 day plants are inoculated with eggs. The 7 day treatment is harvested the same day as the 21 day inoculation. Fourteen days after inoculation the 21 day plants are harvested.
For each compound a stock is prepared using 4 mg material in 4 ml of acetone. The soil is mixed by placing 80 ml of field soil and 320 ml of sand in a plastic bag and mixing well. The formulation for treatment is done by adding 2.13 ml (8 kg/ha rate), 1.06 ml (4 kg/ha rate) or 0.53 ml (2 kg/ha rate) to a vial and raising it with 10 ml in 0.05%×100. Soil is then treated by adding the entire 10 ml to the 400 ml of mix in the bag. The treated soil is immediately mixed well in the sealed bag to distribute the compound evenly. Approximately 95 ml is used to fill each 2-inch square pot up to the top with some soil compression and flattening. For each compound and for the control treatments 4 pots are filled. All pots are watered until moist but with no run-out through the bottom.
The PPI test simulates 8, 4 and 2 kg/ha rates incorporated 15 cm deep in the field and is equivalent to the 2, 1 and 0.5 kg/ha drench application rates in the standard 2-inch pot cucumber greenhouse assay.

root knot nematode (RKN) = experiment: RKN greenhouse soil assay on cucumber plants; format: in vivo, Meloidogyne incognita
From the text: Cucumber seeds are planted in a sandy soil mixture in two inch square plastic pots. When the cotyledons are fully opened and just as the first leaf begins to emerge, usually 7 days after planting, chemistry for the 7 day treatment is applied. One week later the chemistry for the 0 day treatment is applied. Separate plants are used for each application. The plants are generally in the 1-2 leaf stage now. At least four hours after the chemistry application the pots are inoculated with root knot nematode (RKN) eggs. Plants are rated for galling 14 days after the egg inoculation.
One milligram of chemistry per four pots is equal to one kilogram per hectare of chemical. A standard test uses four replications. For rates above 2 kg/ha, the desired amount of chemical is weighed into a 30 ml vial (example: 8 kg/ha rate=8 mg chemical in 30 ml vial). The chemical is dissolved in 2 ml of appropriate solvent, generally acetone. For rates below 2 kg/ha, 2 milligrams of chemistry is weighed into the vial and dissolved in 2 ml of the solvent. The appropriate amount of chemical concentrate is then pipetted into a separate 30 ml vial and solvent is added to bring the volume to 2 ml (example 0.5 kg/ha=0.5 ml of concentrate+1.5 ml solvent). Each dissolved concentrate is then brought to a total of 20 milliliters using 0.05% Triton X 100 surfactant solution.
Pots to be treated are moist but not saturated. To each of four pots, five milliliters of the appropriate chemical solution is pipetted to the media surface making sure to avoid contact with the base of the plant. Immediately following chemical application, using a mist nozzle, the pot surface is wetted sufficiently to saturate the pot watering in the chemistry. The chemical application is done in the morning.
Nematode eggs, either SCN or RKN, are added to distilled water to create a concentration of 1000 vermiform eggs […]. At least four hours after chemical treatment the eggs are applied to the treated pots plus non-treated check plants. A small hole about 1 cm deep is punched into the pot surface. One milliliter of the nematode egg slurry is pipetted into the hole. Immediately afterwards the hole is gently covered. Watering of the test plants is then restricted to only water as needed to prevent wilt for a period of 24 hours. After the 24 hour restricted watering, normal sub-irrigation watering is done for the duration of the test.

C. elegans = experiment: Three day C. elegans well assay; format: in vivo; conditions: for EC50 L4 1D / EC50 L1 1D: one day of exposure; for EC50 L4 2D (F1) / EC50 L4 2D: two days of exposure; for EC50 L4 2D (F1): effects on the second generation larvae (F1); for EC50 L1 1D: L1 larvae
Description: Various compounds were tested for nematicidal activity against C. elegans using contact assays in wells. The assays were performed as described below. The test compounds were solubilized in DMSO at 10 mg/ml to create 100× stock solutions. A dilution series was created by diluting the stock solution with DMSO. For each well assay 4 ul of the appropriate dilution is added to a well of a test plate. A 400 ul aliquot of bacterial stock (in M9 buffer with ampicillin and nystatin) are added to each well of the test plate. Worms are added and the test plate placed on a rotary shaker and held at 20° C. Worms are examined and scored at 4 hrs, 24 hrs, 48 hrs and 72 hours. L1 worms and L4 worms were used in the assay. L1 worms are prepared by plating eggs on a plate without a bacterial feeding layer. The eggs hatch and arrest at the L1 stage. This L1 stage population is then used to create a stock for the experiments. To create an L4 stage stock a small number of worms are taken from an overgrown and starved plate of worms and seeded on a plate with a bacterial feeder layer. A 25 ul aliquot of worms is added to each well in the assay.

## Clc1ccc(-c2noc(-c3ccco3)n2)cc1 [compound 5523]
Meloidogyne incognita [1]; 4 kg (kg/ha) PPI, squash
  0-3 vigor 16 DAP: 3.0
  0-3 vigor 21 DAP: 3.0
  feeder root (3 = ave) 31 DAP: 3.0
  gall % 31 DAP: 26%
  root wgt (g) 31 DAP: 26.3 g
  top wgt (lbs) 31 DAP: 1.31 lbs
  total fruit (lbs): 1.24 lbs
Meloidogyne incognita [1]; PPI application at 4 kg/ha
  control of M. incognita (in words): significant control
Meloidogyne incognita [2]; Table 1B test a
  1 ppm gall ratings: 1 (1=6-20%)
Meloidogyne incognita [2]; Table 1B test b
  1 ppm gall ratings: 1.33
Meloidogyne incognita [2]; 8 ppm, average of triplicate gall rating, scale 0-3 (% root mass galled)
  8 ppm gall ratings: 0 (0=0-5%)
Root knot nematode; 2 kg/ha rate
  pest or weed control at 2000 g/ha: 59%
Root knot nematode; 4 kg/ha rate
  pest or weed control at 4000 g/ha: 87%
Root knot nematode; 8 ka/ha rate
  pest or weed control at 8000 g/ha: 99%
Root knot nematode (RKN); Acetone 1 mg/kg, standard 10% acetone in 0.05% Triton X 100 formulation
  percent control (galling reduction) relative to the appropriate control blank treatment: 86%
Root knot nematode (RKN); Radex 1 mg/kg, emulsifiable concentrate, 6.25% active ingredient by weight
  percent control (galling reduction) relative to the appropriate control blank treatment: 86%

## Clc1cc(-c2noc(-c3cccs3)n2)ccc1Br [compound 5820]
C. elegans; L4 larvae
  EC50 L4 1D: no
  EC50 L4 2D (F1): (25 F1) parts per million

## Clc1cc(-c2noc(-c3ccco3)n2)ccc1Br [compound 5821]
C. elegans; L4 larvae
  EC50 L4 1D: no
  EC50 L4 2D (F1): (0.4 F1) parts per million

## Cc1cc(Cl)ccc1-c1noc(-c2cccs2)n1 [compound 5822]
C. elegans; L4 larvae
  EC50 L4 1D: no

## Cc1cc(Br)ccc1-c1noc(-c2cccs2)n1 [compound 5824]
C. elegans; L4 larvae
  EC50 L4 1D: no
  EC50 L4 2D: no

## Clc1ccccc1-c1cnc(-c2ccco2)o1 [compound 5828]
C. elegans; L4 larvae
  EC50 L4 1D: no
  EC50 L4 2D: no
C. elegans; L4 larvae, three days of exposure
  EC50 L4 3D: no

## Cc1cc(F)ccc1-c1noc(-c2cccs2)n1 [compound 5845]
C. elegans
  EC50 L1 1D: no
C. elegans; L4 larvae
  EC50 L4 1D: no

## Fc1ccc(-c2noc(-c3cccs3)n2)c(F)c1 [compound 5847]
C. elegans
  EC50 L1 1D: no
C. elegans; L4 larvae
  EC50 L4 1D: no

## Fc1ccc(-c2noc(-c3ccco3)n2)c(F)c1 [compound 5849]
C. elegans; L4 larvae
  EC50 L4 1D: no
  EC50 L4 2D (F1): (6.3 F1) parts per million
